In ChEMBL document CHEMBL1201862, “PubChem BioAssay data set” (2004):
“And” between values parts separate entries of the source, which are not always exact repeats. Identical values can stand only once.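 All cell lines were grown in 96-well plates and treated with compound for 48 hours. GI50 is the concentration that inhibits growth by half.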 The source made the active and inactive calls. Cut-off read from the data, not from the text of the source: active = GI50 up to about 1.1 µM and inactive = higher. Residues, ends and D or L forms follow the SMILES beside them. *: point of attachment. Boc = CC(C)(C)OC(=O)*; OBn = c1ccc(CO*)cc1

What was measured:
Experiment in all cases: NCI anticancer screen, dose series, 48 h
SK-OV-3 = test system: SK-OV-3
U-251 = test system: U-251
KM12 = test system: KM12
TK-10 = test system: TK-10
HCT-15 = test system: HCT-15
SNB-75 = test system: SNB-75
Malme-3M = test system: Malme-3M
A498 = test system: A498
SNB-19 = test system: SNB-19
CCRF-CEM = test system: CCRF-CEM
HOP-92 = test system: HOP-92
SF-268 = test system: SF-268
OVCAR-3 = test system: OVCAR-3
NCI-H226 = test system: NCI-H226
HT-29 = test system: HT-29
786-0 = test system: 786-0
DU-145 = test system: DU-145
OVCAR-5 = test system: OVCAR-5
MCF7 = test system: MCF7

| SMILES | GI50 (SK-OV-3) | GI50 (U-251) | GI50 (KM12) | GI50 (TK-10) | GI50 (HCT-15) | GI50 (SNB-75) | GI50 (Malme-3M) | GI50 (A498) | GI50 (SNB-19) | GI50 (CCRF-CEM) | GI50 (HOP-92) | GI50 (SF-268) | GI50 (OVCAR-3) | GI50 (NCI-H226) | GI50 (HT-29) | GI50 (786-0) | GI50 (DU-145) | GI50 (OVCAR-5) | GI50 (MCF7) |
| --- | --- | --- | --- | --- | --- | --- | --- | --- | --- | --- | --- | --- | --- | --- | --- | --- | --- | --- | --- |
| CCOC(=O)C1=C(Nc2ccc(Br)cc2)OCC1=O | > 100 µM (inactive) | > 100 µM (inactive) | > 100 µM (inactive) | > 100 µM (inactive) | > 100 µM | > 100 µM (inactive) | > 100 µM (inactive) | > 100 µM (inactive) | > 100 µM (inactive) | > 100 µM (inactive) | > 100 µM (inactive) | > 100 µM (inactive) | > 100 µM (inactive) | > 100 µM (inactive) | > 100 µM (inactive) | > 100 µM (inactive) | – | – | – |
| C=C(CCOC)CCC1CCCCC(=C)[C@H]1O (stereo not given in full) | > 100 µM (inactive) | > 100 µM (inactive) | > 100 µM (inactive) | > 100 µM (inactive) | > 100 µM | > 100 µM (inactive) | – | > 100 µM (inactive) | > 100 µM (inactive) | > 100 µM (inactive) | > 100 µM (inactive) | > 100 µM (inactive) | > 100 µM (inactive) | > 100 µM (inactive) | > 100 µM (inactive) | > 100 µM (inactive) | > 100 µM (inactive) | > 100 µM (inactive) | > 100 µM (inactive) |
| COC(=O)C1OC(O[C@H]2CC[C@]3(C)[C@H]4CC=C5[C@@H]6CC(C)(C)CC[C@]6(C(=O)OC6OCC(O)C(O)C6OC6OC(C)C(OC7OCC(O)C(O)C7O)C(O)C6O)[C@H](O)C[C@@]5(C)[C@]4(C)CC[C@H]3C2(C)C)C(O)C(O)C1O (stereo not given in full) | 11.4 µM (inactive) and 13.4 µM (inactive) | 5.55 µM (inactive) and 6.11 µM (inactive) | 3.48 µM (inactive) and 3.61 µM (inactive) | 8.15 µM (inactive) and 9.68 µM (inactive) | 12.9 µM and 13.7 µM | 4.81 µM (inactive) and 8.53 µM (inactive) | – | 1.75 µM (inactive) and 1.86 µM (inactive) | 4.56 µM (inactive) and 7.24 µM (inactive) | – | 1.88 µM (inactive) and 2.09 µM (inactive) | 9.29 µM (inactive) and 9.2 µM (inactive) | 11.8 µM (inactive) and 14.8 µM (inactive) | 7.13 µM (inactive) and 3.94 µM (inactive) | 2.77 µM (inactive) and 3.73 µM (inactive) | 5.56 µM (inactive) and 8.55 µM (inactive) | 9.73 µM (inactive) and 13.4 µM (inactive) | 4.93 µM (inactive) and 6.59 µM (inactive) | – |
| COc1ccc(OC)c(NC(=O)CCC/C(CC(=O)c2ccc(O)c(OC)c2)=N\Nc2ccc([N+](=O)[O-])cc2)c1 | 39 µM (inactive) | 32.1 µM (inactive) | 94.6 µM (inactive) | 50.2 µM (inactive) | > 100 µM | 22.5 µM (inactive) | > 100 µM (inactive) | > 100 µM (inactive) | 26.6 µM (inactive) | 68.2 µM (inactive) | 34.3 µM (inactive) | > 100 µM (inactive) | > 100 µM (inactive) | > 100 µM (inactive) | > 100 µM (inactive) | 27.6 µM (inactive) | – | > 100 µM (inactive) | – |
| NC1=NN(c2ccccc2)C(=O)C1C(=O)C(=O)Nc1nccs1 (stereo not given) | > 100 µM (inactive) | > 100 µM (inactive) | > 100 µM (inactive) | > 100 µM (inactive) | > 100 µM | 62.1 µM (inactive) | > 100 µM (inactive) | > 100 µM (inactive) | > 100 µM (inactive) | > 100 µM (inactive) | > 100 µM (inactive) | > 100 µM (inactive) | > 100 µM (inactive) | > 100 µM (inactive) | > 100 µM (inactive) | > 100 µM (inactive) | – | > 100 µM (inactive) | – |
| CC1=C(O)C(=O)C2=C(C1=O)[C@@H]([C@@H](C)C/C=C/C(C)(C)O)CC[C@@H]2C | > 100 µM (inactive) | 52.7 µM (inactive) | 31.2 µM (inactive) | – | 31 µM | – | – | > 100 µM (inactive) | 83.6 µM (inactive) | 28.8 µM (inactive) | – | 30.7 µM (inactive) | 25.5 µM (inactive) | 74.5 µM (inactive) | 69.3 µM (inactive) | > 100 µM (inactive) | 98.6 µM (inactive) | > 100 µM (inactive) | 41.1 µM (inactive) |
| O=C(C(=O)N1CC2C=CC1CC2)c1c[nH]c2ccccc12 (stereo not given) | > 100 µM (inactive) | > 100 µM (inactive) | > 100 µM (inactive) | > 100 µM (inactive) | > 100 µM | 82.4 µM (inactive) | > 100 µM (inactive) | > 100 µM (inactive) | > 100 µM (inactive) | > 100 µM (inactive) | > 100 µM (inactive) | > 100 µM (inactive) | – | > 100 µM (inactive) | > 100 µM (inactive) | > 100 µM (inactive) | – | > 100 µM (inactive) | – |
| O=C1O/C(=C(\Br)c2cccc3ccccc23)c2ccccc21 | > 39.8 µM (inactive) | > 100 µM (inactive) | 29.7 µM (inactive) | 30.4 µM (inactive) | 31.3 µM | > 50.4 µM (inactive) | > 46.7 µM (inactive) | 19.1 µM (inactive) | – | 20 µM (inactive) | 29 µM (inactive) | > 37.5 µM (inactive) | 26.8 µM (inactive) | > 41.3 µM (inactive) | 22.5 µM (inactive) | 17.4 µM (inactive) | – | > 40.2 µM (inactive) | – |
| COc1ccc(C(CC(=O)c2ccccc2)C(=O)c2ccc3c(c2)OCO3)cc1 (stereo not given) | > 100 µM (inactive) | > 100 µM (inactive) | > 100 µM (inactive) | > 100 µM (inactive) | > 100 µM | > 100 µM (inactive) | 79.3 µM (inactive) | > 100 µM (inactive) | > 100 µM (inactive) | > 100 µM (inactive) | – | > 100 µM (inactive) | – | > 100 µM (inactive) | – | > 100 µM (inactive) | > 100 µM (inactive) | – | > 100 µM (inactive) |
| N/N=C1\C(=O)N(c2ccc(Cl)cc2Cl)C(=O)C(=O)C1c1nc2ccccc2o1 (stereo not given) | > 100 µM (inactive) | > 100 µM (inactive) | > 100 µM (inactive) | > 100 µM (inactive) | > 100 µM | > 100 µM (inactive) | > 100 µM (inactive) | > 100 µM (inactive) | > 100 µM (inactive) | 57.5 µM (inactive) | > 100 µM (inactive) | > 100 µM (inactive) | > 100 µM (inactive) | > 100 µM (inactive) | > 100 µM (inactive) | > 100 µM (inactive) | – | > 100 µM (inactive) | – |
| Nc1ncnc2c1sc(=S)n2-c1ccccc1 | > 100 µM (inactive) | > 100 µM (inactive) | > 100 µM (inactive) | > 100 µM (inactive) | 96.8 µM | > 100 µM (inactive) | > 100 µM (inactive) | 82.8 µM (inactive) | > 100 µM (inactive) | > 100 µM (inactive) | 40.8 µM (inactive) | > 100 µM (inactive) | > 100 µM (inactive) | > 100 µM (inactive) | > 100 µM (inactive) | > 100 µM (inactive) | – | > 100 µM (inactive) | – |
| CN1CCN(c2ccc3[nH]c(-c4ccc5[nH]c(-c6ccc(N(C)CCCl)cc6)nc5c4)nc3c2)CC1 | 0.196 µM (active) | 0.0429 µM (active) | 0.811 µM (active) | 2.87 µM (inactive) | 12.6 µM | 0.152 µM (active) | 0.208 µM (active) | 2.56 µM (inactive) | 0.0538 µM (active) | < 0.01 µM (active) | 0.222 µM (active) | 0.0622 µM (active) | – | 0.705 µM (active) | 0.217 µM (active) | 0.13 µM (active) | 0.183 µM (active) | 2.45 µM (inactive) | < 0.01 µM (active) |
| COC(C)(C)[C@H](O)C(O)CC(C)[C@@H]1CCC23CC12CCC1[C@@]2(C)CCC(OC(C)=O)C(C)(C)C2CC(OC2OC(COC(C)=O)C(O)C(O)C2O)[C@]13C (stereo not given in full) | 9.4 µM (inactive) | 2.67 µM (inactive) | 2.16 µM (inactive) | 7.23 µM (inactive) | 1.86 µM | 3.8 µM (inactive) | 7.87 µM (inactive) | 8.83 µM (inactive) | 6.84 µM (inactive) | 2.55 µM (inactive) | 3.72 µM (inactive) | 3.48 µM (inactive) | 3.29 µM (inactive) | 8.32 µM (inactive) | 1.22 µM (inactive) | 6.58 µM (inactive) | – | 2.34 µM (inactive) | – |
| CNc1ccc2c(c1)Cc1ccccc1-2 | – | 34.4 µM (inactive) | 36.1 µM (inactive) | 36.6 µM (inactive) | 15.3 µM | 52.6 µM (inactive) | 37.9 µM (inactive) | 20 µM (inactive) | 13.6 µM (inactive) | 59.2 µM (inactive) | 21 µM (inactive) | 44 µM (inactive) | 26.8 µM (inactive) | 78 µM (inactive) | 30.3 µM (inactive) | 53 µM (inactive) | 31.9 µM (inactive) | 98.6 µM (inactive) | 44.6 µM (inactive) |
| CC(C)C(NC(=O)CNC(=O)C1CCCN1C(=O)C(NC(=O)OC(C)(C)C)C(C)C)C(=O)NCC(=O)OCc1ccccc1 (stereo not given) (Boc-VPGVG-OBn; configuration not given here) | > 100 µM (inactive) | > 100 µM (inactive) | > 100 µM (inactive) | – | > 100 µM | – | > 100 µM (inactive) | > 100 µM (inactive) | > 100 µM (inactive) | > 100 µM (inactive) | > 100 µM (inactive) | > 100 µM (inactive) | > 100 µM (inactive) | > 100 µM (inactive) | > 100 µM (inactive) | > 100 µM (inactive) | > 100 µM (inactive) | > 100 µM (inactive) | > 100 µM (inactive) |
